Experimental data reported in article PMC10587126, “Molecular hybridization strategy for tuning bioactive peptide function” (Communications Biology, 2023).
Like-named read-outs stand apart in the source and are kept apart here. No end group written: not given here.

Assays:
human erythrocytes [1] = assay: Hemolytic activity; type: cell-based; conditions: 0.1–100 μmol L^−1 in PBS, room temperature, 1 h, absorbance 405 nm
Method: Assays against freshly collected human erythrocytes were performed following protocols described by Pedron et al.[54]. Briefly, peptide aliquots at concentrations ranging from 0.1 to 100 μmol L^−1 were incubated with a suspension of erythrocytes at room temperature for 1 h. The samples were then centrifuged, and the absorbance of the supernatant was measured at 405 nm. […] The surfactant SDS and PBS buffer were used as positive[81],[82] and negative controls, respectively. Sodium heparin was used as an anticoagulant when collecting human blood. Three biological repeats were performed. All experiments were performed in accordance with the protocol CEUA/IB #I-1345/15 approved by the Instituto Butantan.

[2] = Resistance to proteolytic degradation in fetal bovine serum; type: in vitro ADME; conditions: 25% fetal bovine serum in water, 37 °C
Method: Stability assays were performed following the protocol described by Torres et al.[67]. Briefly, a peptide solution was added to GIBCO fetal bovine serum diluted to 25% in water and kept at 37 °C. The degradation kinetics were monitored by liquid chromatography and the percentage of peptide remaining in each case was calculated by integrating the peptide peak area. These experiments were performed as three independent replicates, and aliquots were taken at 0, 0.5, 1, 2, 4, and 6 h.

human erythrocytes [3] = conditions: at 100 µmol L^−1; cited from earlier work
Source text: These observations are consistent with our results for PV, which incorporated protonectin’s hydrophobic face (Fig. 2) displaying increased antimicrobial activity than VP (Fig. 3). Additi ...

[4] = Skin tissue histopathological analysis (H&E); type: in vivo, mouse; conditions: H&E staining, tissue collected 24 h after infection and treatment, three mice per condition
Method: The fur on the back of the mice was removed and the mice were infected and treated as described in the Skin abscess infection mouse model section. After 24 h, mice were euthanized for tissue collection. Samples were pre-fixed in individual cassettes, then transferred to a container filled with 70% ethanol (EtOH) for slicing and staining. Next, the samples were placed on glass slides for microscopy analysis. We collected the tissue from three mice per condition analyzed.

[5] = Mouse body weight in the skin abscess infection model; type: in vivo
Method: The anti-infective activity of the peptides VmCT1, temporin A, VT, and TV against A. baumannii ATCC 19606 was evaluated as described by Torres et al.[7],[83] Bacteria were grown in tryptic soy broth medium to an optical density of 0.5 at 600 nm. Cells were washed twice with sterile phosphate-buffered saline (pH 7.4, 13,000 rpm for 1 min) and resuspended to a final concentration of 1 × 10^7 CFU/20 μL. To generate the skin infection, female CD-1 mice (6-weeks-old) were first anesthetized with isoflurane and their backs were shaved. Using a needle, a superficial linear abrasion was made on the shaved area of the mice to injure just the stratum corneum and the upper layer of the epidermis. An aliquot of 20 μL containing 1 × 10^7 CFU of A. baumannii was then inoculated over the wound area with a pipette tip. The next day, the infected area was treated with the peptides (i.e., VmCT1, temporin A, VT, and TV), which were administered onto the abscess at their MIC. The animals were euthanized, and the scarified skin area removed 2- and 4-days post-infection. The excised area was homogenized using a bead beater for 20 min (25 Hz) and serially diluted for CFU quantification. Eight mice were used per group (n = 8). All experiments were performed in accordance with protocol 806763 approved by the IACUC at the University of Pennsylvania.

[6] = LC peak area, time 0 = 100, 0.5 h, replicate 3
[7] = LC peak area, time 0 = 100, 1 h, replicate 3
[8] = LC peak area, time 0 = 100, 2 h, replicate 3
[9] = LC peak area, time 0 = 100, 4 h, replicate 1
[10] = LC peak area, time 0 = 100, 4 h, replicate 2
[11] = LC peak area, time 0 = 100, 4 h, replicate 3
[12] = LC peak area, time 0 = 100, 6 h, replicate 1
[13] = LC peak area, time 0 = 100, 6 h, replicate 2
[14] = LC peak area, time 0 = 100, 6 h, replicate 3
[15] = day 0 = 100, Day 1, replicate 1
[16] = day 0 = 100, Day 1, replicate 2
[17] = day 0 = 100, Day 1, replicate 3
[18] = day 0 = 100, Day 2, replicate 1
[19] = day 0 = 100, Day 2, replicate 2
[20] = day 0 = 100, Day 2, replicate 3
[21] = day 0 = 100, Day 3, replicate 1
[22] = day 0 = 100, Day 3, replicate 2
[23] = day 0 = 100, Day 3, replicate 3
[24] = day 0 = 100, Day 4, replicate 1
[25] = day 0 = 100, Day 4, replicate 2
[26] = day 0 = 100, Day 4, replicate 3
[27] = LC peak area, time 0 = 100, 0.5 h, replicate 1
[28] = LC peak area, time 0 = 100, 0.5 h, replicate 2
[29] = LC peak area, time 0 = 100, 1 h, replicate 1
[30] = LC peak area, time 0 = 100, 1 h, replicate 2
[31] = LC peak area, time 0 = 100, 2 h, replicate 1
[32] = LC peak area, time 0 = 100, 2 h, replicate 2

Substance | Hemolytic activity (concentration of peptide needed to kill 10% of red blood cells) (human erythrocytes [1]) [µmol/L] | Peptide remaining [2, 6] | Peptide remaining [2, 7] | Peptide remaining [2, 8] | Peptide remaining [2, 9] | Peptide remaining [2, 10] | Peptide remaining [2, 11] | Peptide remaining [2, 12] | Peptide remaining [2, 13] | Peptide remaining [2, 14] | Histopathological effect on skin tissue (in words) [4] | Mouse body weight, normalized to the weight at the beginning of the experiment [5, 15] | Mouse body weight, normalized to the weight at the beginning of the experiment [5, 16] | Mouse body weight, normalized to the weight at the beginning of the experiment [5, 17] | Mouse body weight, normalized to the weight at the beginning of the experiment [5, 18] | Mouse body weight, normalized to the weight at the beginning of the experiment [5, 19] | Mouse body weight, normalized to the weight at the beginning of the experiment [5, 20] | Mouse body weight, normalized to the weight at the beginning of the experiment [5, 21] | Mouse body weight, normalized to the weight at the beginning of the experiment [5, 22] | Mouse body weight, normalized to the weight at the beginning of the experiment [5, 23] | also measured
SLLSLIRKLIT-NH2 [Decoralin, reference compound] | 1.6 | 0.0 | 0.0 | 0.0 | 0.0 | 0.0 | 0.0 | 0.0 | 0.0 | 0.0 |  |  |  |  |  |  |  |  |  |  | remaining at 0.5 h ([2]; fetal bovine serum, 25% in water, LC peak area, time 0 = 100, 0.5 h, replicate 1, read-out: Peptide remaining): 71%; remaining at 0.5 h ([2]; fetal bovine serum, 25% in water, LC peak area, time 0 = 100, 0.5 h, replicate 2, read-out: Peptide remaining): 65%; remaining at 1 h ([2]; fetal bovine serum, 25% in water, LC peak area, time 0 = 100, 1 h, replicate 1, read-out: Peptide remaining): 26%; remaining at 1 h ([2]; fetal bovine serum, 25% in water, LC peak area, time 0 = 100, 1 h, replicate 2, read-out: Peptide remaining): 23%; remaining at 2 h ([2]; fetal bovine serum, 25% in water, LC peak area, time 0 = 100, 2 h, replicate 1, read-out: Peptide remaining): 29%; remaining at 2 h ([2]; fetal bovine serum, 25% in water, LC peak area, time 0 = 100, 2 h, replicate 2, read-out: Peptide remaining): 23%; Hemolytic activity (in words) (human erythrocytes [3]): low hemolytic activity
FLGAIGNVLKSIL-NH2 [TV] | 0.2 | 0 | 0 | 0 | 0 | 0 |  | 0 | 0 | 0 | Neither TV nor VmCT1 changed the tissue’s morphology | 90 | 90 | 100 | 90 | 95 | 100 | 90 | 95 | 105 | Mouse body weight, normalized to the weight at the beginning of the experiment [5, 24]: 85; Mouse body weight, normalized to the weight at the beginning of the experiment [5, 25]: 95; Mouse body weight, normalized to the weight at the beginning of the experiment [5, 26]: 100; Peptide remaining after 30 min ([2]; LC peak area vs time 0, 30 min, three replicates): totally degraded; Peptide remaining [2, 27]: 0; Peptide remaining [2, 28]: 0; Peptide remaining [2, 29]: 0; Peptide remaining [2, 30]: 0; Peptide remaining [2, 31]: 0; Peptide remaining [2, 32]: 0; remaining at 4 h ([2]; fetal bovine serum, 25% in water, LC peak area, time 0 = 100, 4 h, replicate 3, read-out: Peptide remaining): 0%
FLGALWNVAKSVF-NH2 [VmCT1, reference compound] |  | 26.5 | 7.4 | 11.9 | 0.0 | 0.0 | 0.0 | 0.0 | 0.0 | 0.0 | Neither TV nor VmCT1 changed the tissue’s morphology | 90 | 100 | 105 | 90 | 95 | 100 | 95 | 100 | 105 | Mouse body weight, normalized to the weight at the beginning of the experiment [5, 24]: 90; Mouse body weight, normalized to the weight at the beginning of the experiment [5, 25]: 100; Mouse body weight, normalized to the weight at the beginning of the experiment [5, 26]: 100; Peptide remaining [2, 27]: 28.5; Peptide remaining [2, 28]: 24.4; Peptide remaining [2, 29]: 6.3; Peptide remaining [2, 30]: 8.5; Peptide remaining [2, 31]: 10.5; Peptide remaining [2, 32]: 13.9
